Data: US12448369B2 (Edgewise Therapeutics, Inc., priority 2023, dated 2025)
Marks after values point to notes of the source that are not given here.

What follows are compounds tested on Rabbit Psoas myofibrils (skeletal myosin ATPase) (assay: Myofibril ATPase assay, rabbit psoas (skeletal) myofibrils). Settings: rabbit psoas myofibrils; Y75 value.
Format: biochemical
Procedure: (§1) Example 1. Myofibril ATPase Assay
(§2) Myofibril ATPase assays are known in the art to be useful in evaluating small molecules for the treatment of HCM and other cardiac indications. Myosin ATPase activity is assessed by using a coupled reaction system, in which ADP generated by the myosin ATPase function is coupled to the disappearance of NADH through the pyruvate kinase/lactate dehydrogenase (PK-LDH) system. ATPase activity produces ADP, which is used as a substrate for PK to produce pyruvate and regenerate ATP. The pyruvate is then used as a substrate by LDH to oxidize NADH to NAD+. The rate of the reaction is monitored through the time-dependent disappearance of NADH using absorbance at 340 nm, which, when the couple system is in stoichiometric excess, is directly correlated to the ATPase activity of the myosin. Inhibition of ATPase activity by the assayed compounds is indicated by a reduced rate of NADH loss, relative to vehicle-treated controls, over the experimental time window. Activation of ATPase activity by the assayed compounds is indicated by an increased rate of NADH loss, relative to vehicle-treated controls, over the experimental time window. Rabbit Psoas, Porcine atria, and Porcine ventricle are the primary sources of myofibril material.
(§3) Materials: The following stock solutions and reagents were used in the Myofibril ATPase Assay:
(§4) Stock Solutions of pCa buffer. Combine PIPES, CaCl2, and EGTA solutions with water. Adjust pH to 7.0 and bring final volume to 100 mL.
(§5) Buffer A & Buffer B. Prepare buffers A and B according to the table below.
(§6) Myofibril ATPase Assay Procedure: BSA, ATP, NADH, PEP, and DTT solutions were thawed at room temperature, then transferred to ice. Pellet-frozen myofibrils were transferred with approximately twice the required volume into a sufficiently large tube and capped. Myofibrils were thawed by rolling in a water bath for approximately 15 min at room temperature and cooled on ice. Buffers A and B were prepared by adjusting volumes as necessary for required number of wells and stored on ice. 0.5 μL of the compounds to be assayed were added into wells. 25 μL of Buffer A was dispensed into the wells, followed by 25 μL of Buffer B. The wells were measured for absorbance at 340 nm, using a kinetic protocol in which the wells are read every 1.5-2 min for 75 min. Assay data analysis was performed using a python script that filtered the raw data to retain those points falling between a starting and ending time and between a maximum and minimum absorbance, then used the filtered time-domain 340 nm absorbance data in each well to calculate a slope via linear regression analysis in units of mAU/min. Compound slopes were normalized between 100% and 0% activity, where 100% represented the slope of wells containing only compound vehicle, and fit to a 4-parameter logistic model. In addition to the fit parameters, the EC25% values were calculated, relative to the 100% normalized value. Additionally, the Y125 values were calculated for compounds that increased myosin ATP-ase activity. Fit parameters, calculated effective concentrations, filtered raw data, and calculated slopes were exported, in addition to compound-specific graphs of normalized ATPase activity versus concentration in μM. Each value reported in Table 5, Table 6, and Table 7 is either a Y75 value or a Y125 value. Values without a double cross sign, ‡, are Y75 values, which reflect the concentration required to reduce myosin ATP-ase activity by 25% (e.g., Y-axis activity value is 75% of initial value), relative to myosin ATP-ase activity in the absence of exogenous compound.
Skeletal Myofibril Isolation:
(§7) Myofibrils from various animals and tissue types were acquired from a variety of sources: rabbit psoas muscle was purchased from Pel-Freez Biologicals (Rogers, AR) and porcine cardiac muscle was purchased from Exemplar Genetics. All myofibrils were prepared using a method based upon those described in Herrmann et al. (1993) and summarized here. […]

Compound	Skeletal EC25 [µM]
Cc1c([C@@H](C)C(=O)N[C@@H](C)c2ccc(F)cc2F)c(=O)[nH]c2ccc(C(F)(F)F)nc12 (single isomer, unassigned) [compound 370]	0.51
Cc1ccccc1[C@@H](CO)NC(=O)Cc1c(C)c2c(C)nccc2[nH]c1=O (single isomer, unassigned) [compound 337]	100.00
Cc1c(CC(=O)N[C@H](C)c2ccc(F)cc2F)c(=O)[nH]c2ccnc(C#N)c12 [compound 269]	2.47
Cc1c(CC(=O)N[C@@H](C)c2ncc(C#N)cc2F)c(=O)[nH]c2ccc(O)nc12 [compound 166]	3.22
Cc1nccc2[nH]c(=O)c(CC(=O)NC[C@@H](CO)c3ccccc3)c(C)c12 [compound 494]	100.00
Cc1ccc([C@H](C)NC(=O)Cc2c(C)c3c(C)nccc3[nH]c2=O)cc1 (single isomer, unassigned) [compound 306]	5.05
C[C@H](NC(=O)Cc1cc2c(Cl)nccc2[nH]c1=O)c1ccc(F)cc1F [compound 439]	0.10
Cc1nccc2[nH]c(=O)c(CC(=O)N[C@H](C)c3cccc(O)n3)c(C)c12 (single isomer, unassigned) [compound 297]	100.00
Cc1nccc2[nH]c(=O)c(C(F)(F)C(=O)N[C@@H](C)c3ncc(C#N)cc3F)c(C)c12 (single isomer, unassigned) [compound 3517]	0.38
C[C@H](NC(=O)[C@@H](C)c1cc2nc(C#N)ccc2[nH]c1=O)c1ccc(F)cc1F (single isomer, unassigned) [compound 258]	100.00
C[C@H](NC(=O)Cc1cc2nc(Cl)ccc2[nH]c1=O)c1ccc(F)cc1F [compound 388]	0.67
Cc1nccc2[nH]c(=O)c(CC(=O)N[C@H](CO)c3ccncc3)c(C)c12 [compound 292]	100.00
C[C@H](NC(=O)[C@@H](C)c1cc2nc(F)ccc2[nH]c1=O)c1ccc(F)cc1F (single isomer, unassigned) [compound 364]	0.44
Cc1nccc2[nH]c(=O)c(CC(=O)N[C@@H]3COc4cccnc43)c(C)c12 (single isomer, unassigned) [compound 251]	100.00

Same assay, conditions: rabbit psoas myofibrils; Y125 value, not a Y75 value

Compound	Skeletal EC25 (Y125 value, marked ‡)
C[C@@H](NC(=O)Cc1c(C(F)(F)F)c2c(C3CC3)nccc2[nH]c1=O)c1ccc(C#N)nn1 (single isomer, unassigned) [compound 3003]	94.25‡ μM

What follows are compounds tested on Porcine atria myofibrils (atrial myosin ATPase) (assay: Myofibril ATPase assay, porcine atria myofibrils). Settings: porcine atria myofibrils; Y75 value (75% activity relative to no compound).
Format: biochemical
Procedure: as §1, §2, §3, §4, §5, §6, §7

Compound	Atrial EC25 [µM]
Cc1c([C@@H](C)C(=O)N[C@@H](C)c2ccc(F)cc2F)c(=O)[nH]c2ccc(C(F)(F)F)nc12 (single isomer, unassigned) [compound 370]	0.06
Cc1ccccc1[C@@H](CO)NC(=O)Cc1c(C)c2c(C)nccc2[nH]c1=O (single isomer, unassigned) [compound 337]	100.00
Cc1c(CC(=O)N[C@H](C)c2ccc(F)cc2F)c(=O)[nH]c2ccnc(C#N)c12 [compound 269]	100.00
Cc1c(CC(=O)N[C@@H](C)c2ncc(C#N)cc2F)c(=O)[nH]c2ccc(O)nc12 [compound 166]	1.91
Cc1nccc2[nH]c(=O)c(CC(=O)NC[C@@H](CO)c3ccccc3)c(C)c12 [compound 494]	100.00
Cc1ccc([C@H](C)NC(=O)Cc2c(C)c3c(C)nccc3[nH]c2=O)cc1 (single isomer, unassigned) [compound 306]	11.75
C[C@H](NC(=O)Cc1cc2c(Cl)nccc2[nH]c1=O)c1ccc(F)cc1F [compound 439]	0.06
Cc1nccc2[nH]c(=O)c(CC(=O)N[C@H](C)c3cccc(O)n3)c(C)c12 (single isomer, unassigned) [compound 297]	100.00
Cc1nccc2[nH]c(=O)c(C(F)(F)C(=O)N[C@@H](C)c3ncc(C#N)cc3F)c(C)c12 (single isomer, unassigned) [compound 3517]	1.12
C[C@H](NC(=O)[C@@H](C)c1cc2nc(C#N)ccc2[nH]c1=O)c1ccc(F)cc1F (single isomer, unassigned) [compound 258]	100.00
C[C@H](NC(=O)Cc1cc2nc(Cl)ccc2[nH]c1=O)c1ccc(F)cc1F [compound 388]	1.08
Cc1nccc2[nH]c(=O)c(CC(=O)N[C@H](CO)c3ccncc3)c(C)c12 [compound 292]	100.00
C[C@H](NC(=O)[C@@H](C)c1cc2nc(F)ccc2[nH]c1=O)c1ccc(F)cc1F (single isomer, unassigned) [compound 364]	1.16
Cc1nccc2[nH]c(=O)c(CC(=O)N[C@@H]3COc4cccnc43)c(C)c12 (single isomer, unassigned) [compound 251]	100.00

Same assay, conditions: porcine atria myofibrils; Y125 value (125% activity), not a Y75 value

Compound	Atrial EC25 (Y125 value, marked ‡)
C[C@@H](NC(=O)Cc1c(C(F)(F)F)c2c(C3CC3)nccc2[nH]c1=O)c1ccc(C#N)nn1 (single isomer, unassigned) [compound 3003]	92.51‡ μM

These compounds were tested against T1, Porcine ventricle myofibrils (ventricular myosin ATPase) (Sus scrofa, UniProt P79293) (assay: Myofibril ATPase assay, porcine ventricle myofibrils). Settings: porcine ventricle myofibrils; Y75 value.
T1 construct: Myofibrils from porcine cardiac muscle was isolated from the left ventricle of Yucatan minipigs; tissue Exemplar Genetics; host or cells: left ventricle of Yucatan minipigs, myofibrils prepared in house
Format: biochemical, porcine (Yucatan minipigs)
Procedure: as §1, §2, §3, §4, §5, §6
Cardiac Myofibril Isolation:
Myofibrils from porcine cardiac muscle was isolated from the left ventricle of Yucatan minipigs. Myofibrils were prepared using a method based upon those described in Herrmann et al. (1993) and summarized here. […]

T1 sequence (P79293 whole entry): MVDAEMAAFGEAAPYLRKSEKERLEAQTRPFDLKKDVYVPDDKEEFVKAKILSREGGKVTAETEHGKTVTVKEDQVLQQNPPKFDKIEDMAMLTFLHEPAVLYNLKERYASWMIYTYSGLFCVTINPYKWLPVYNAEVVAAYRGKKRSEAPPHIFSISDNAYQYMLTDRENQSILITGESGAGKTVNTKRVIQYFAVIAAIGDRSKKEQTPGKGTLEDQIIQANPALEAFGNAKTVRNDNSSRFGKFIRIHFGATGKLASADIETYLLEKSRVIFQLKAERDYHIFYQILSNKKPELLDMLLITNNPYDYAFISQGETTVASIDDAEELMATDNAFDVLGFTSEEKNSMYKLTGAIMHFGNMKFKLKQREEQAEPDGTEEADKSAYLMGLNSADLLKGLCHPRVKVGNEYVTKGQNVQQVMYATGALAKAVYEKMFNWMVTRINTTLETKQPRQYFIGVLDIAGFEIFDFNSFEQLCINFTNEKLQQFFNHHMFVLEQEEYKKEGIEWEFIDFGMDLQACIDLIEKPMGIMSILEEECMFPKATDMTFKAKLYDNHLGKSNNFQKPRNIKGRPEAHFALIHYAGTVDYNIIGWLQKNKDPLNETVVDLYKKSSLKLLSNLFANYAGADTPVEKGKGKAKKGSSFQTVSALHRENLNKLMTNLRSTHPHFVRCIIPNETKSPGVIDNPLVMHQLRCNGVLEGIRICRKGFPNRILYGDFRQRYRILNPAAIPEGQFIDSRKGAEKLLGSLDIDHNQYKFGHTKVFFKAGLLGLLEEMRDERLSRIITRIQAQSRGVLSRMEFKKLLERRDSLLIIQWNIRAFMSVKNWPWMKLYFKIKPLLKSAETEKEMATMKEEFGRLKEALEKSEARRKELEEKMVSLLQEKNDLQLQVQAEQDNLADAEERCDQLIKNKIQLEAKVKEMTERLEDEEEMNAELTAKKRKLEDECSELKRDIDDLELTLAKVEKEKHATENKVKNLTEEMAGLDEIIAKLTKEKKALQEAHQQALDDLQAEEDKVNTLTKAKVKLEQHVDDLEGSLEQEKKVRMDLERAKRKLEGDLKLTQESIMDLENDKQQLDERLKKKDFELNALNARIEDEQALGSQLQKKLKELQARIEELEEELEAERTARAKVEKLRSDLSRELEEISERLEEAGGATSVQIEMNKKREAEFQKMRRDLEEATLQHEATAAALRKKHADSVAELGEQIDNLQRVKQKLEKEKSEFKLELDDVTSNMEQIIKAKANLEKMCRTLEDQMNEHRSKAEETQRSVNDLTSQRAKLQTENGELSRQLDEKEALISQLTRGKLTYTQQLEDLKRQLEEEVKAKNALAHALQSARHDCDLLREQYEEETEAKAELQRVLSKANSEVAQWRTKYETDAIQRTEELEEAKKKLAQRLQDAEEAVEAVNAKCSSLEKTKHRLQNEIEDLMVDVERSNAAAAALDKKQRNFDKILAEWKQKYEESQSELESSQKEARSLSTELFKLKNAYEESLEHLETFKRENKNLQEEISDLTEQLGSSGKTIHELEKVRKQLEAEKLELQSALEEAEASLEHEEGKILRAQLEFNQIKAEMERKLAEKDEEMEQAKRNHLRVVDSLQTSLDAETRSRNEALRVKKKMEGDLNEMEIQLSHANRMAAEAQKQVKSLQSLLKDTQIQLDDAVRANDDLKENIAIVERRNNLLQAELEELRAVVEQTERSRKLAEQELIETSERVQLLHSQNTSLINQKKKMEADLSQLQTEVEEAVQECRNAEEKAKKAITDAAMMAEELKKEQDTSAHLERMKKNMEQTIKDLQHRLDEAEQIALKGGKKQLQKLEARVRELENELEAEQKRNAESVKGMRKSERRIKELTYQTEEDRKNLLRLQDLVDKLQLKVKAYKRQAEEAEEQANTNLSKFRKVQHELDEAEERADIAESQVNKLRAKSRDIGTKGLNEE

Compound	Ventricular EC25 [µM]
Cc1c([C@@H](C)C(=O)N[C@@H](C)c2ccc(F)cc2F)c(=O)[nH]c2ccc(C(F)(F)F)nc12 (single isomer, unassigned) [compound 370]	48.16
Cc1ccccc1[C@@H](CO)NC(=O)Cc1c(C)c2c(C)nccc2[nH]c1=O (single isomer, unassigned) [compound 337]	100.00
Cc1c(CC(=O)N[C@H](C)c2ccc(F)cc2F)c(=O)[nH]c2ccnc(C#N)c12 [compound 269]	34.76
Cc1c(CC(=O)N[C@@H](C)c2ncc(C#N)cc2F)c(=O)[nH]c2ccc(O)nc12 [compound 166]	100.00
Cc1nccc2[nH]c(=O)c(CC(=O)NC[C@@H](CO)c3ccccc3)c(C)c12 [compound 494]	100.00
Cc1ccc([C@H](C)NC(=O)Cc2c(C)c3c(C)nccc3[nH]c2=O)cc1 (single isomer, unassigned) [compound 306]	100.00
C[C@H](NC(=O)Cc1cc2c(Cl)nccc2[nH]c1=O)c1ccc(F)cc1F [compound 439]	0.47
Cc1nccc2[nH]c(=O)c(CC(=O)N[C@H](C)c3cccc(O)n3)c(C)c12 (single isomer, unassigned) [compound 297]	100.00
Cc1nccc2[nH]c(=O)c(C(F)(F)C(=O)N[C@@H](C)c3ncc(C#N)cc3F)c(C)c12 (single isomer, unassigned) [compound 3517]	2.11
C[C@H](NC(=O)[C@@H](C)c1cc2nc(C#N)ccc2[nH]c1=O)c1ccc(F)cc1F (single isomer, unassigned) [compound 258]	63.55
C[C@H](NC(=O)Cc1cc2nc(Cl)ccc2[nH]c1=O)c1ccc(F)cc1F [compound 388]	38.06
C[C@@H](NC(=O)Cc1c(C(F)(F)F)c2c(C3CC3)nccc2[nH]c1=O)c1ccc(C#N)nn1 (single isomer, unassigned) [compound 3003]	100.00
Cc1nccc2[nH]c(=O)c(CC(=O)N[C@H](CO)c3ccncc3)c(C)c12 [compound 292]	100.00
C[C@H](NC(=O)[C@@H](C)c1cc2nc(F)ccc2[nH]c1=O)c1ccc(F)cc1F (single isomer, unassigned) [compound 364]	4.71
Cc1nccc2[nH]c(=O)c(CC(=O)N[C@@H]3COc4cccnc43)c(C)c12 (single isomer, unassigned) [compound 251]	100.00
